In patent US6906042B2, “Micelles” (Eisai Co., Ltd., priority 2000, dated 2005):
Several values for one entry are separate records, joined by “and”; a condition that tells them apart may be missing. Identical values can stand only once.

Legend:
[1] = Micelle hydrodynamic diameter of E5564 before lyophilization and after reconstitution, admixture and storage
Source text: After lyophilization the micelles were reconstituted with water diluted in an aqueous dextrose solution (Table 2). […] (Table 2).

[2] = E5564 micelle hydrodynamic diameter before and after simulated I.V. infusion using administration equipment (DLS); conditions: simulated administration conditions using representative infusion equipment
Source text: The following conditions apply to the data in Table 4: Microbore 60″ extension set with PVC free fluid path, No. V6212 (McGraw, Inc.); 3 cc syringe with Luer Lok, No. 309585 (Becton Dickenson); Injection site with Luer Lok, No. 2N1199 (Baxter); Needle, 20G 1, No. 305175 (Becton Dickenson); I.V. catheter, JELCO, No. 4050 (Johnson & Johnson Medical Inc.).

[3] = Micelle hydrodynamic diameter of E5564 through NaOH dissolution, lactose phosphate buffer, freeze-drying and re-hydration; conditions: upon freeze-drying
Source text: This solution was then combined with a lactose containing phosphate buffer solution to yield a solution pH of 7-8. […] This solution was then filtered through a 0.2 μm filter to render the solution sterile in the manner conventional to pharmaceutical manufacturing. The sterile solution was then filled into vials and freeze-dried.

CCCCCC/C=C\CCCCCCCCCC(=O)N[C@H]1[C@H](OC[C@H]2O[C@H](OP(=O)(O)O)[C@H](NC(=O)CC(=O)CCCCCCCCCCC)[C@@H](OCCCCCCCCCC)[C@@H]2O)OC(COC)[C@@H](OP(=O)(O)O)[C@@H]1OCC[C@@H](CCCCCCC)OC (stereo partly shown) [Compound E5564]
micelle hydrodynamic diameter stability ([1]; […], or under refrigeration): stable
hydrodynamic diameter (nm) ([1]; admixed with 5% dextrose solution (0.14 mg/mL), storage for 24 hours at 25° C.): 8.1 nm
hydrodynamic diameter (nm) ([1]; admixed with 5% dextrose solution (0.14 mg/mL), storage for 72 hours at 2-8° C.): 7.7 nm
hydrodynamic diameter (nm) ([1]; immediately following admixture with 5% dextrose solution (0.14 mg/mL)): 7.7 nm and 6.8 nm
hydrodynamic diameter (nm) ([1]; immediately following reconstitution (0.5 mg/mL)): 8.6 nm and 7.7 nm and 6.9 nm
hydrodynamic diameter (nm) ([1]; reconstituted solution (0.5 mg/mL), storage for 24 hours at 25° C.): 8.2 nm
hydrodynamic diameter (nm) ([1]; reconstituted solution (0.5 mg/mL), storage for 72 hours at 2-8° C.): 8.3 nm
hydrodynamic diameter (nm) ([1]; reconstituted solution after storage of lyophilized drug product 6 months at 2-8° C.): 7.5 nm
hydrodynamic diameter (nm) ([1]; reconstituted solution after storage of lyophilized drug product 6 months at 25° C./60% RH): 7.3 nm and 7.2 nm
hydrodynamic diameter (nm) ([1]; reconstituted solution, lyophilized drug product, initial): 8.6 nm and 7.7 nm and 6.9 nm
hydrodynamic diameter (nm) ([1]; solutions prior to lyophilization): 7.6 nm and 7.4 nm and 7.9 nm
micelle hydrodynamic diameter stability [2]: stable
micelle hydrodynamic diameter stability [3]: stable
